Where a name gives a salt, the structure may show the parent alone.
Experiments:
Adrenergic alpha1B = Adrenergic alpha1B (Homo sapiens (Human), UniProt P35368); experiment: Adrenergic alpha1B binding
Description: (§1) Further, the compounds of the invention may be tested in binding assays and functional activity assays by well known methods for other physiologically important receptors such as, but not limited to, the hERG channel, other serotonin receptors (specifically 5-HT1B, 5-HT1D, receptors, lack of agonist activity at 5-HT2B receptors, 5-HT2C, 5-HT5, 5-HT6, and 5-HT7 receptors), dopaminergic receptors (specifically D1, D2, and D3), GABAA receptors, adrenergic receptors and monoamine transporters.

native GABAA receptors = experiment: GABAA antagonism using native receptors in primary neuronal cultures (FLIPR calcium flux); format: cell-based, rat; settings: against 10 μM GABA
Procedure: Activity of compounds on native GABAA receptors is evaluated by monitoring calcium fluxes using a 96 well format FLIPR® system (Fluorometric Imaging Plate Reader (FLIPR®, Molecular Devices). Briefly, cortical embryonic neurons are dissociated from E18 rat embryos and plated at optimum density into black-walled, transparent bottom poly-D-lysine coated 96-well FLIPR® plates. After loading the cells with a calcium sensitive dye (Fluo4-AM, Molecular Devices), the cells are bathed in a solution containing low chloride (chloride replaced by gluconate). Under these conditions activation of GABAA receptors causes an efflux of chloride ions (in the direction of the chemical gradient), which results in membrane depolarization and consequently activation of voltage gated calcium channels (VGCCs). Calcium influx through VGCCs is recorded and analysed offline using the FLIPR® system. For a pharmacological validation of the assay, concentration response curves (CRC) are recorded for the standard agonist (GABA) and standard antagonist (Gabazine). […]
The antagonist effects of compounds are quantified using 10-point dose response curves by comparing the peak fluorescent responses to the agonist GABA in the presence and absence of compound. […] Antagonist effects are calculated as a percent of the assay window. […]

Adrenergic alpha2B = Adrenergic alpha2B (Homo sapiens (Human), UniProt P18089); experiment: Adrenergic alpha2B binding
Description: as §1

Dopamine D1 = Dopamine D1 (Homo sapiens (Human), UniProt P21728); experiment: Dopamine D1 binding
Description: as §1

[1] = Plasma clearance in rat (intravenous); format: in vivo; settings: 1 mg/kg, dihydrochloride
Procedure: Male Sprague Dawley rats (body weight range 250-320 g) with indwelling femoral arterial cannulae are obtained from Charles River, Wilmington, Mass. 01887, USA. Test compound is administered intravenously in solution (1 mL/kg) in 20% Captisol® in 22.5 mM phosphate buffer, pH 2, at a final drug concentration of 1.0 mg/mL (free base equivalents). Blood samples are obtained using the indwelling cannula over 24 hr. Samples of plasma are obtained by centrifugation and stored frozen (−20° C.), or on dry ice, prior to analysis.
(§2) Frozen plasma samples are thawed to room temperature for bioanalysis of concentrations of test compound. A related internal standard compound in acetonitrile/methanol (1:1, v/v) is added to all samples of plasma (1:1, v/v). The samples are centrifuged to remove precipitated protein prior to analysis. The supernatants are analysed by injection and rapid gradient elution on a Javelin Betasil C18 column (20×2.1 mm cartridge, Mobile phase A: Water/1 M NH4HCO3, 2000:10 v/v, Mobile Phase B: MeOH/1 M NH4HCO3, 2000:10 v/v). The eluted analytes are detected by LC-MS-MS analysis using a Sciex API 4000 triple quadrupole mass spectrometer. Concentrations of compound are determined from standards prepared and analysed under identical conditions. Clearance is calculated using non-compartmental analysis in Watson 7.4, Thermo Fisher Scientific, Inc.

5-HT5 = 5-HT5 (Homo sapiens (Human), UniProt P47898); experiment: 5-HT5 binding
Description: as §1

[2] = biological target: human recombinant H1 receptor (Homo sapiens (Human), UniProt P35367); experiment: H1 inverse agonism (IP1 accumulation in HEK293/hm H1 cells); format: cell-based; settings: n=2
5-HT2B = 5-HT2B (Homo sapiens (Human), UniProt P41595); experiment: 5-HT2B binding
Description: as §1

Adrenergic alpha2C = Adrenergic alpha2C (Homo sapiens (Human), UniProt P18825); experiment: Adrenergic alpha2C binding
Description: as §1

5-HT1D = 5-HT1D (Homo sapiens (Human), UniProt P28221); experiment: 5-HT1D binding
Description: as §1

[3] = Plasma clearance in dog (intravenous); format: in vivo; settings: male, Beagle, 1 mg/kg
Procedure: Male Beagle dogs (body weight range 10-12 kg) are obtained from Marshall Bioresources, USA. Test compound is administered intravenously in solution (1 mL/kg) in 20% Captisol® in 22.5 mM phosphate buffer, pH 2, at a final drug concentration of 1.0 mg/mL (free base equivalents). Blood samples are obtained from the jugular vein over 24 hr. Samples of plasma are obtained by centrifugation and stored frozen (−20° C.) prior to analysis.
as §2

[4] = biological target: recombinant 5-HT2A receptor (human) (Homo sapiens (Human), UniProt P28223); experiment: 5-HT2A competition binding assay ([3H]-Ketanserin, SPA); settings: dihydrochloride
Procedure: [^3H]-Ketanserin binding experiments are carried out in SPA 96-well format. Membranes used in this assay are prepared from AV-12 cells stably expressing recombinant 5-HT2A receptor (human). The incubation is initiated by the addition of a mixture of WGA YSi SPA beads (1 mg/well, Perkin Elmer (MA, USA), RPNQ0011) and 2 μg membranes to assay buffer (67 mM Tris, 0.5 mM EDTA; pH 7.6) containing 3.1 nM [^3H]-Ketanserin and varying concentrations of the test compound (10 point concentration response curves). Non-specific binding is determined in the presence of 20 μM 1-(1-Naphthyl) piperazine. Samples are incubated for 4 hr. at room temperature (22° C.) and then read in a Microbeta Trilux.
Curves are evaluated using a 4-parameter logistic nonlinear equation to obtain the concentration of competitor causing 50% inhibition of radioligand binding (IC50). Equilibrium dissociation constants (Ki) are calculated according to the equation Ki=IC50/(1+L/Kd), where L equals the concentration of radioligand used in the experiment and Kd equals the equilibrium dissociation constant of the radioligand for the receptor, determined from standard saturation analysis or homologous competition experiments. Reported values for Ki, where n values are indicated, are shown as geometric mean±the standard error of the mean (SEM), with the number of replicate determinations indicated by n. […]

Dopamine D2 = Dopamine D2 (Homo sapiens (Human), UniProt P14416); experiment: Dopamine D2 binding; settings: dihydrochloride
Description: as §1

Adrenergic alpha2A = Adrenergic alpha2A (Homo sapiens (Human), UniProt P08913); experiment: Adrenergic alpha2A binding
Description: as §1

5-HT6 = 5-HT6 (Homo sapiens (Human), UniProt P50406); experiment: 5-HT6 binding
Description: as §1

Sequence of human recombinant H1 receptor (P35367 whole entry): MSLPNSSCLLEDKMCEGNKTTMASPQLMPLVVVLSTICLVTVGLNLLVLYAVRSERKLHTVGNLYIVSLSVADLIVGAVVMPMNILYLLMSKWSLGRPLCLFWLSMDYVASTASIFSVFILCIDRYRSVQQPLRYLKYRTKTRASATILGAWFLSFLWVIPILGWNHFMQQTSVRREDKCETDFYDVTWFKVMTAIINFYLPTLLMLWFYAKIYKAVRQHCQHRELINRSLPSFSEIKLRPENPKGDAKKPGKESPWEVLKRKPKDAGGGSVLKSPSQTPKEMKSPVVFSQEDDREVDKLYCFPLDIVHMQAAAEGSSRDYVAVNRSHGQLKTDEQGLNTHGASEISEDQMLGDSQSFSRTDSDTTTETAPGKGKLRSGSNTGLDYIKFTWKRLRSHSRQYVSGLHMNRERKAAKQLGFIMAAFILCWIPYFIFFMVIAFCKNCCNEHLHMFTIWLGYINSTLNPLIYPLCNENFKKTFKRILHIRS
Sequence of 5-HT5 (P47898 whole entry, species assumed): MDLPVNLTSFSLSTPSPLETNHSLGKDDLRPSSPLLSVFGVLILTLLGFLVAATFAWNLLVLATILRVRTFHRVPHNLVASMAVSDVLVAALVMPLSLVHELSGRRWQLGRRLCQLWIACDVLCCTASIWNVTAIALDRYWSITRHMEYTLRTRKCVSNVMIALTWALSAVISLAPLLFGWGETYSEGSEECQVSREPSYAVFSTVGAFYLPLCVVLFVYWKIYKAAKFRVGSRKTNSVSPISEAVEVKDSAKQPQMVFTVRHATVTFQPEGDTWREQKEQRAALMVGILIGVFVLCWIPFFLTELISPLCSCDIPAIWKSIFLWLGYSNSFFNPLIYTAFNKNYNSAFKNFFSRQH
Sequence of Dopamine D1 (P21728 whole entry): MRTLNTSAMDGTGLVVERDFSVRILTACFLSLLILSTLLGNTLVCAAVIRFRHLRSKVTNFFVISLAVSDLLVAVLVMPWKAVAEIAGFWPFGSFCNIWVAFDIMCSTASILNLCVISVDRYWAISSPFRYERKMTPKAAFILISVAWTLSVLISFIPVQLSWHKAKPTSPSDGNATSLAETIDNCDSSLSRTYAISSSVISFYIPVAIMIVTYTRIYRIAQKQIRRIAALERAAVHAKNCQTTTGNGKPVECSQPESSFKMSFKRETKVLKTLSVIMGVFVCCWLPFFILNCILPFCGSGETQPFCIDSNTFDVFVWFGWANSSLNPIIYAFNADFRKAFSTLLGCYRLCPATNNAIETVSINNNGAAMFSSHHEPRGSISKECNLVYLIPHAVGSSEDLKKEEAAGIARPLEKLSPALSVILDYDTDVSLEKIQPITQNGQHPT
Sequence of Adrenergic alpha2B (P18089 whole entry): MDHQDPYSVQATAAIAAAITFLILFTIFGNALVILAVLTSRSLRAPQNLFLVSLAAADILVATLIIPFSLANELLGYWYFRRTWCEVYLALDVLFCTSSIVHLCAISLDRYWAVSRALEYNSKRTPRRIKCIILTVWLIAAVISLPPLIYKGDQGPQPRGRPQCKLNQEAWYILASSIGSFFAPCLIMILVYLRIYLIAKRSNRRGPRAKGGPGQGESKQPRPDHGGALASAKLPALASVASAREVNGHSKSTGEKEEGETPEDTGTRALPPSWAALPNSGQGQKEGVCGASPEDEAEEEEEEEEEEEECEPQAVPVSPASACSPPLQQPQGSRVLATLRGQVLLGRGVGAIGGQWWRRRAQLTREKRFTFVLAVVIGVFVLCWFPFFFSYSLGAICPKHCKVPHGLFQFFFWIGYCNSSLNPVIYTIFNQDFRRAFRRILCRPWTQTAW
Sequence of 5-HT2B (P41595 whole entry, species assumed): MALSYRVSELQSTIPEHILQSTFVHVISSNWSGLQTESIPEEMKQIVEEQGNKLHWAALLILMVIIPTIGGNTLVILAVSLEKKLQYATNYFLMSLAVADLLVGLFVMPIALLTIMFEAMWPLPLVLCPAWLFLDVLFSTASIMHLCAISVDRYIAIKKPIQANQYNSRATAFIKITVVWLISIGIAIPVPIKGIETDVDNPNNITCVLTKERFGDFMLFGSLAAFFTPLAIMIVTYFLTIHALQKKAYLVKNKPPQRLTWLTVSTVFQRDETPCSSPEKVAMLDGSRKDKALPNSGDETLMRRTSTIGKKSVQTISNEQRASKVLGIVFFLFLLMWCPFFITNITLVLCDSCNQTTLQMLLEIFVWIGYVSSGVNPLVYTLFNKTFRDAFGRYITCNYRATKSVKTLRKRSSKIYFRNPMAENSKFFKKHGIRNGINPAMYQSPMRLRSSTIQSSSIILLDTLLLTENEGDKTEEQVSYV
Sequence of Adrenergic alpha1B (P35368 whole entry): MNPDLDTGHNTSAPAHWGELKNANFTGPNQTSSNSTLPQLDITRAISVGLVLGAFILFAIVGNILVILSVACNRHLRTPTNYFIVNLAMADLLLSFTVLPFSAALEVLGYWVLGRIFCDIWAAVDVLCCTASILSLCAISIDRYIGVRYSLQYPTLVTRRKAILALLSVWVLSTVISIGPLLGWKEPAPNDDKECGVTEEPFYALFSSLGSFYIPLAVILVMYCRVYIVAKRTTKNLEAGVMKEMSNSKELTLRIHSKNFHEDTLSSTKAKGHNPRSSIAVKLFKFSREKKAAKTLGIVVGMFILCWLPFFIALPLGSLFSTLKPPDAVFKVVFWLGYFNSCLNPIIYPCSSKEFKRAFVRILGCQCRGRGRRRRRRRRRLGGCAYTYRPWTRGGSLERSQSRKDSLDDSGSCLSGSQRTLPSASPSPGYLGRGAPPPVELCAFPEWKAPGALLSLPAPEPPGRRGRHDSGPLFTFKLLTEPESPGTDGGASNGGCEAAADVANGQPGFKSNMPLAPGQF
Sequence of Dopamine D2 (P14416 whole entry): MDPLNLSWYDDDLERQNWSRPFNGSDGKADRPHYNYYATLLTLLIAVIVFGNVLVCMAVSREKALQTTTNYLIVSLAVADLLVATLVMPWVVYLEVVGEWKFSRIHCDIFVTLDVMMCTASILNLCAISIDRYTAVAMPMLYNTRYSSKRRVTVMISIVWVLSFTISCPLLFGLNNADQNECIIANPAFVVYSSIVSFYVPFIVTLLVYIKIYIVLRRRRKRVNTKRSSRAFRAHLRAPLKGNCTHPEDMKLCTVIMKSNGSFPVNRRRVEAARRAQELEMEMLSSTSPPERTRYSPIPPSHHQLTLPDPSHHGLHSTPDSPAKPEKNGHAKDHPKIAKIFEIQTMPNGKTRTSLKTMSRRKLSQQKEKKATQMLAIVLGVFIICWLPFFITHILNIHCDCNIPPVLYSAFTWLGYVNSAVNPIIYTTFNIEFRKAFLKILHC
Sequence of Adrenergic alpha2C (P18825 whole entry): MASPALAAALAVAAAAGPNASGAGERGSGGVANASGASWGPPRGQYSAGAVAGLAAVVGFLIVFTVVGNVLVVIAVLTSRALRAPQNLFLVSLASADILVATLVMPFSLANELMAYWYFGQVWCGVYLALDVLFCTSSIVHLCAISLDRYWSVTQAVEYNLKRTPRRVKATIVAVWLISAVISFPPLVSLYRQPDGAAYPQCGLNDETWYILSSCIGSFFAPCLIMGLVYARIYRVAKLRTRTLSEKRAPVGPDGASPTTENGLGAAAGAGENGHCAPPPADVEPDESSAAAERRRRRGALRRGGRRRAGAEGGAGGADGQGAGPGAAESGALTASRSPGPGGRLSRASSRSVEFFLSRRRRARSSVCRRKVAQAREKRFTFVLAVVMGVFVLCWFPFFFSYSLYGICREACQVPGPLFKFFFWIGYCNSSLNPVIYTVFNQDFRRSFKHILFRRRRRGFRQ
Sequence of 5-HT1D (P28221 whole entry, species assumed): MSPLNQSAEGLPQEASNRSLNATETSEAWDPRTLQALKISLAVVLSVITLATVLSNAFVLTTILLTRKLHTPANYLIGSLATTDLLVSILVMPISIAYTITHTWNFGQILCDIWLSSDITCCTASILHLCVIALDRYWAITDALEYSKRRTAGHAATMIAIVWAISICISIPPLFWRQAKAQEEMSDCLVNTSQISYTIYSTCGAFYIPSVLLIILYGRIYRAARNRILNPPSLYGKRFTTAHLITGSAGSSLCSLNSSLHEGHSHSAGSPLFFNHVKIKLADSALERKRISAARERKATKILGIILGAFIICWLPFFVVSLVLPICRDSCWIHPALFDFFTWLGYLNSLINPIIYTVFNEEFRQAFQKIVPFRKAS
Sequence of 5-HT6 (P50406 whole entry, species assumed): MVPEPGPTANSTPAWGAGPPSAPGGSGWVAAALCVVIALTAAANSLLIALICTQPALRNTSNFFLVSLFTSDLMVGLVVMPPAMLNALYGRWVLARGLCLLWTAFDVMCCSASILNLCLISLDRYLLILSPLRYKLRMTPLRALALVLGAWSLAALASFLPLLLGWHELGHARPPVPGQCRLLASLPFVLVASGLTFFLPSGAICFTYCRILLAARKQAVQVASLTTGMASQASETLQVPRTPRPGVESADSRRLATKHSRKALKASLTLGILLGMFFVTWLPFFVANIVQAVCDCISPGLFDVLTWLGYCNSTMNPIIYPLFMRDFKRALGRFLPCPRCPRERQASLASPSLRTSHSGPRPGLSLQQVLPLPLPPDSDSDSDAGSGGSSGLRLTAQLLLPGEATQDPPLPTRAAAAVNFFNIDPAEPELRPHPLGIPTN
Sequence of Adrenergic alpha2A (P08913 whole entry): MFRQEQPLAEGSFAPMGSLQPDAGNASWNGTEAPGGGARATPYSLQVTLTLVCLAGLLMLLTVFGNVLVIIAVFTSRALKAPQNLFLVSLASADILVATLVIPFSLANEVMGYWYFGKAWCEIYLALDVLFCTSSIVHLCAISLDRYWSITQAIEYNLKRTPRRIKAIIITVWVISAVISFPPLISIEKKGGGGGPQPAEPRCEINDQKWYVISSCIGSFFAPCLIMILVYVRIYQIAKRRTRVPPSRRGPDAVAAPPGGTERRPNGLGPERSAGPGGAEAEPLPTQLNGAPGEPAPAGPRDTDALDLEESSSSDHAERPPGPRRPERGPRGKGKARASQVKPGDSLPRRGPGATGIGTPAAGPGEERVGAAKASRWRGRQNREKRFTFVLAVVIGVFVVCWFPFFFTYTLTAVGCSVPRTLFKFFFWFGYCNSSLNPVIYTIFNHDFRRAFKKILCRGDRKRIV

## Cc1ccc2c(c1)Oc1sc(Cl)cc1C(N1CCN(CC(C)(C)C(=O)O)CC1)=N2 [Example 3, 3-[4-(2-chloro-8-methyl-thieno[2,3-b][1,5]benzoxazepin-4-yl)piperazin-1-yl]-2,2-dimethyl-propanoic acid dihydrochloride]
Adrenergic alpha1B
  Ki: > 14.7 µM
Native GABAA receptors
  IC50: > 100 µM
Adrenergic alpha2B
  Ki: > 5.76 µM
Dopamine D1
  Ki: 0.592 µM
[1]
  clearance: 14.5 (+/−1.4, n = 3) mL/min./Kg
5-HT5
  Ki: > 8.81 µM
[2]; at 1 μM
  suppression of constitutive activity (IP1), relative to Tripelennamine: 105%
[2]; at 10 μM
  suppression of constitutive activity (IP1), relative to Tripelennamine: 85%
5-HT2B
  Ki: 0.121 µM
Adrenergic alpha2C
  Ki: > 4.23 µM
5-HT1D
  Ki: > 3.98 µM
[3]
  clearance: 3.2 mL/min/kg
[4]
  Ki: 0.00701 µM
Dopamine D2
  Ki: > 4.57 µM
Adrenergic alpha2A
  Ki: > 8.99 µM
5-HT6
  Ki: > 5.83 µM
